The text below walks through data of the RepoRT retention time repository (doi:10.1021/acs.analchem.1c00972).

Series [1] in a line: RP, Waters ACQUITY UPLC BEH C18, 100 × 1 mm, 1.7 µm, 50 °C, 0.3 mL/min, estimated dead time 0.17 min; A: water + 10 mM ammonium bicarbonate; B: 10% water + 90% methanol + 10 mM ammonium bicarbonate; gradient (min/%B) 0/0 15/100 21/100 22/0 30/0. The following applies: stereoisomer not certain.
Series [2] is described as follows: RP, Waters ACQUITY UPLC BEH C18, 100 × 1 mm, 1.7 µm, 50 °C, 0.3 mL/min, estimated dead time 0.17 min; A: water + 0.1% formic acid + 20 mM ammonium formate; B: methanol + 0.1% formic acid + 20 mM ammonium formate; gradient (min/%B) 0/0 15/100 21/100 22/0 30/0. The following applies: stereoisomer not certain.

Take `CCC1OC(=O)C(C)C(OC2CC(C)(OC)C(O)C(C)O2)C(C)C(OC2OC(C)CC(N(C)C)C2O)C(C)(O)CC(C)C(=NOCOCCOC)C(C)C(O)C1(C)O` (stereo unspecified) [Roxithromycin]: the LC retention time in series [1] is 16.9 min; in series [2] it was 14.3 min.

Take `C#CC1(OC(C)=O)CCC2C3CCC4=CC(=NO)CCC4C3CCC21CC` (stereo unspecified) [Norgestimate]: the LC retention time was 16.6 min in series [1] and 16.4 min in series [2].

In the case of `NC(=O)N1c2ccccc2C=Cc2cc(O)ccc21` [2-Hydroxycarbamazepine], the LC retention time in series [1] was 10.8 min; in series [2], 10.7 min.

With `CC(=O)c1cc(C(C)(C)C)cc2c1CCC2(C)C` [Celestolide], the LC retention time in series [1] was 17.9 min; in series [2], 17.5 min.

As to `CCCCNc1ccc(C(=O)OCCN(C)C)cc1` [Tetracain], the values for the LC retention time in series [1] and in series [2] were 15.2 min and 11.4 min, respectively.

In the case of `O=C1CCCC2C3CCCN4CCCC(CN12)C34` (stereo unspecified) [Matrine], the LC retention time in series [1] is 13 min; in series [2] it was 5.2 min.

On to `CC1COC(=O)c2cc3c(cc21)C(C)(C)C(C)C3(C)C` (stereo unspecified) [Galaxolidone], for which the LC retention time in series [1] is 16.9 min; in series [2] it was 16.6 min.

`C=C1C(=O)OC2CC[N+]3([O-])CC=C(COC(=O)C(C)(O)C(C)C1C)C23` (stereo unspecified) [Senecivernine N-oxide]: the LC retention time in series [1] was 9.7 min; in series [2], 8.69 min.

As to `CCC(=O)C(CC(C)N(C)C)(c1ccccc1)c1ccccc1` (stereo unspecified) [Methadone], the LC retention time is 18.2 min in series [1] and 13.1 min in series [2].

Turning to `CC(C)NCC(O)COc1ccc(COCCOC(C)C)cc1` (stereo unspecified) [Bisoprolol], the LC retention time was 13.8 min in series [1] and 11.1 min in series [2].

With `CC(=O)C1(O)CCC2C3CC(C)C4=CC(=O)CCC4(C)C3CCC21C` (stereo unspecified) [Medroxyprogesterone], the LC retention time in series [1] was 15.5 min; in series [2], 15.2 min.

As to `CCN(CCO)CCCC(C)Nc1ccnc2cc(Cl)ccc12` (stereo unspecified) [Hydroxychloroquine], the LC retention time is 14.1 min in series [1] and 7.34 min in series [2].

In the case of `O=C(O)c1ccccc1O` [Salicylic acid], the LC retention time was 4.78 min in series [1] and 9.72 min in series [2].

Take `CCOC(=O)CCN(SN(C)C(=O)Oc1cccc2c1OC(C)(C)C2)C(C)C` [Benfuracarb]: the values for the LC retention time in series [1] and in series [2] were 17 min and 16.6 min, respectively.

In the case of `CC12CCC(=O)C=C1C=CC1C2CCC2(C)C1CCC21CCC(=O)O1` (stereo unspecified) [Canrenone], the LC retention time in series [1] was 14.5 min; in series [2], 14.2 min.

As to `CC(=O)N(C)c1ccc(N)cc1` [N-(4-Aminophenyl)-N-methyl-acetamid], the LC retention time in series [1] was 7.24 min; in series [2], 5.17 min.

On to `NC(=O)C1(N2CCCCC2)CCN(CCCC(=O)c2ccc(F)cc2)CC1` [Pipamperone], for which the LC retention time is 14.5 min in series [1] and 9.31 min in series [2].

Take `N=c1nc(N)c(-c2cccc(Cl)c2Cl)nn1O` [Lamotrigin-N2-Oxid]: the LC retention time is 9.15 min in series [1] and 9.42 min in series [2].

Consider `COP(=S)(OC)SCn1nnc2ccccc2c1=O` [Azinphos methyl], for which the LC retention time in series [1] was 13.6 min; in series [2], 13.4 min.

As to `CC(C)C1(C)N=C(c2ncccc2C(=O)O)NC1=O` (stereo unspecified) [Imazapyr], the LC retention time is 5.24 min in series [1] and 8.89 min in series [2].

For the compound `COC1CC(CC2CCC(C)C(C(C)C(=O)O)O2)OC2(OC(C)(C3CCC(C)(C4OC(C5OC(O)(CO)C(C)CC5C)CC4C)O3)CC2C)C1C` (stereo unspecified) [Nigericin], the LC retention time in series [1] was 19.7 min; in series [2], 18.8 min.

For the compound `CC(C)(C#N)c1cc(Cn2cncn2)cc(C(C)(C)C#N)c1` [Anastrozole], the values for the LC retention time in series [1] and in series [2] were 11.5 min and 11.3 min, respectively.

Regarding `NC(=O)c1ccc(N)cc1` [4-Aminobenzamide], the LC retention time in series [1] was 2.63 min; in series [2], 2.09 min.
